Data published in ChEMBL document CHEMBL1201862, “PubChem BioAssay data set” (2004).
Active and inactive are the calls of the source.

Key:
[1] = target: Glucose-6-phosphate 1-dehydrogenase (Homo sapiens, UniProt P11413); assay: human G6PD enzyme inhibitors, dose response, selectivity assay for P. falciparum G6PD inhibitor project, biochemical, fluorescence (AID 504792); assay type: functional
[2] = LGR2 antagonists, dose response, cell-based, HEK293, CRE-luciferase reporter, cherry pick, set 2 (AID 743343); assay type: functional;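 note: transfected cells were stimulated with diluted bursicon conditioned medium after compound addition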
[3] = MC4R antagonists, dose response, counter-screen for LGR2 antagonist project, cell-based, plate reader, cherry pick (AID 743444); assay type: functional;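 note: transfected HEK 293 cells stimulated with alpha-MSH peptide; potency of inhibitors of the alpha-MSH evoked signal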
[4] = A549 cell cytotoxicity, dose response, cytotoxicity control, plate reader, cherry-pick, antagonist series (AID 743412); assay type: functional, cell-based
[5] = C. albicans growth with fluconazole, confirmation, fluorescence, retest (AID 2467); assay type: functional, cell-based
[6] = NIH-3T3 fibroblast cytotoxicity, dose response, cytotoxicity control, cell-based, fluorescence, Alamar Blue, secondary assay (AID 2327); assay type: functional;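 note: NIH-3T3 mouse fibroblasts cultured with fluconazole at 8 µg/mL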
[7] = target: Heat shock protein HSP 90-alpha (Homo sapiens, UniProt P07900); assay type: functional, organism-based
[8] = target: T1, Microphthalmia-associated transcription factor (Homo sapiens, UniProt O75030); assay: TRPM1 promoter luciferase signal decrease, dose response, MITF inhibitor project, cell-based, SK-MEL-5, cherry-picked, set 3 (AID 493073); assay type: functional
T1 sequence (O75030 whole entry): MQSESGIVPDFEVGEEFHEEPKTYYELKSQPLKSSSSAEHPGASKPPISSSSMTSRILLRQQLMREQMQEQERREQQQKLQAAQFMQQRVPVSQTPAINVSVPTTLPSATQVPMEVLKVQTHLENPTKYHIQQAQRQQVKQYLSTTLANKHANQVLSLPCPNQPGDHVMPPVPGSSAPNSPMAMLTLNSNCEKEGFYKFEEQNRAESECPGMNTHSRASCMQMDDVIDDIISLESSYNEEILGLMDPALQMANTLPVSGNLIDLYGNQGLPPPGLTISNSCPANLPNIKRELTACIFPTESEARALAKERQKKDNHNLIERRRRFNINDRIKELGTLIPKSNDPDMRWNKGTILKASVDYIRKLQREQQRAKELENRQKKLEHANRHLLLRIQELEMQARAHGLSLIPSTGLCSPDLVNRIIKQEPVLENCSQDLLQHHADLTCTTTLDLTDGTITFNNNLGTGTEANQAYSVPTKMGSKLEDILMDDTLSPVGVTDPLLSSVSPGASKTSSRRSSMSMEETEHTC

[9] = target: T2, Apoptotic protease-activating factor 1 (Homo sapiens, UniProt O14727); assay type: functional
T2 sequence (O14727 whole entry): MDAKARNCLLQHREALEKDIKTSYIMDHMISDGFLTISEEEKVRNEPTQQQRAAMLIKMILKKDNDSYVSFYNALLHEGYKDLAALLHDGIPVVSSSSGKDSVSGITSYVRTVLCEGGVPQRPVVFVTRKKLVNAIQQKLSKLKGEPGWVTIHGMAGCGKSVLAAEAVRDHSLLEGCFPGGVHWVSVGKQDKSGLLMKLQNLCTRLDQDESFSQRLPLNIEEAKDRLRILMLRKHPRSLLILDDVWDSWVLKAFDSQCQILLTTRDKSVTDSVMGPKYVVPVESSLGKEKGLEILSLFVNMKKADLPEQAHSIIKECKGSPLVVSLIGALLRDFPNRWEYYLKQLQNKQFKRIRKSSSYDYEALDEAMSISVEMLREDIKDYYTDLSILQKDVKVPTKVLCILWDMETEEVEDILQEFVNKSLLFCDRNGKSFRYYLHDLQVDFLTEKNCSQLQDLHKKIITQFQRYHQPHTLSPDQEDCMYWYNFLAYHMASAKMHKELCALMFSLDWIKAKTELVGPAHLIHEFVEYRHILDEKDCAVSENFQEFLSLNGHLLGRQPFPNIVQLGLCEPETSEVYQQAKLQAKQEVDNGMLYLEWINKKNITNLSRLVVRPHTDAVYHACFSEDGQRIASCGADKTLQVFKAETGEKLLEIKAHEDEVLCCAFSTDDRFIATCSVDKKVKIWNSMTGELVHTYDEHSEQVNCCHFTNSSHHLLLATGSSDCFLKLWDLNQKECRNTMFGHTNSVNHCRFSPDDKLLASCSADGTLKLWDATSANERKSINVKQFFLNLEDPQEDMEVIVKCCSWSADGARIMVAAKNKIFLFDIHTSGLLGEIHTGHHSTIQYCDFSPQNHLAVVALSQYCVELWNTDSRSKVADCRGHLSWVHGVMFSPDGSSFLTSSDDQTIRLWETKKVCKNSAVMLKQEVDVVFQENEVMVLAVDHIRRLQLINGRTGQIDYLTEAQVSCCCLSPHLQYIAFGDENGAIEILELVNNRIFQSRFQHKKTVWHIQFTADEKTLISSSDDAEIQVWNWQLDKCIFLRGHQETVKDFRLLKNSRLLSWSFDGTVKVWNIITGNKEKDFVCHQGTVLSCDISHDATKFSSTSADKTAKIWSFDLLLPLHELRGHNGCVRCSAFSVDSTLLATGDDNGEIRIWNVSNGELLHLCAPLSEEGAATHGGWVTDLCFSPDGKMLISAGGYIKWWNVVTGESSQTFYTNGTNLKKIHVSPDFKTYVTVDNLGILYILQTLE

[10] = inhibitors of SNCA 5'UTR-driven reporter translation, confirmation, H4 neuroglioma cells, luminescence (AID 1988); assay type: functional, cell-based
[11] = Luminescence Cell-Based Dose Response HTS to Identify Inhibitors of 5'UTR Stem-Loop Driven Prion Protein mRNA Translation in H4 Neuroglioblastoma Cells. [Related pubchem assays: 1827 (Project Summary), 1813 (Primary HTS)]; assay type: functional
HEK293 = assay: inhibitors of LMP1-driven NF-kB reporter, dose response, cell-based, HEK293, luciferase, cherry-pick (AID 588343); assay type: functional; conditions: Homo sapiens
[12] = Luminescence Cell-Based Dose Retest to Confirm Inhibitors of Cancer Stem Cells. [Related pubchem assays (depositor defined):AID2717, AID2721]; assay type: functional; conditions: Homo sapiens
[13] = control 3'UTR Renilla luciferase suppression, dose response, counter-screen for Shn3 inhibitor project, cell-based, Clone20-Shn3RL, cherry-picked (AID 624133); assay type: functional
[14] = HepG2 cell cytotoxicity, dose response, cytotoxicity control for Shn3 inhibitor project, CellTiter-Glo, cherry-picked (AID 624134); assay type: functional, cell-based
[15] = Shn3 3'UTR reporter inhibitors, dose response, cell-based, Clone20 osteoblasts, firefly luciferase, cherry-picked (AID 624132); assay type: functional;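 note: firefly luciferase luminescence from reporter carrying the Shn3 3'UTR in osteoblasts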
Genome polyprotein = Genome polyprotein (dengue virus type 2, UniProt P29990); assay: Dengue-2 NS5 methyltransferase inhibitors, primary screen, biochemical, confirmation dose response (AID 588689); assay type: functional
Caspase-6 = target: T3, Caspase-6 (Homo sapiens, UniProt P55212); assay: human caspase-6 inhibitors, dose response, biochemical, VEID-R110 fluorescence, cherry-pick (AID 720632)
T3 sequence (P55212 whole entry): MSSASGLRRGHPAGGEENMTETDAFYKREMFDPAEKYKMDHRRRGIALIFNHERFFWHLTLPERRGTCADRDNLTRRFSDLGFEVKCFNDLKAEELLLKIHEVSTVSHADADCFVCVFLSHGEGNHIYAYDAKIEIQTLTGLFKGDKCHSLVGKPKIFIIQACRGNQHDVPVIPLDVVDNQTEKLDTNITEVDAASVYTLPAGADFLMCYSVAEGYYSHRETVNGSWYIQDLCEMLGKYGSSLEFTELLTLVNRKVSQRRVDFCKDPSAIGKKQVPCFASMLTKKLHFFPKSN

[16] = target: T4, High affinity choline transporter 1 (Homo sapiens, UniProt Q9GZV3); assay: CHT inhibitors, dose response, cell-based, 5-point CRC, membrane potential dye (AID 504840); assay type: functional
T4 sequence (Q9GZV3 whole entry): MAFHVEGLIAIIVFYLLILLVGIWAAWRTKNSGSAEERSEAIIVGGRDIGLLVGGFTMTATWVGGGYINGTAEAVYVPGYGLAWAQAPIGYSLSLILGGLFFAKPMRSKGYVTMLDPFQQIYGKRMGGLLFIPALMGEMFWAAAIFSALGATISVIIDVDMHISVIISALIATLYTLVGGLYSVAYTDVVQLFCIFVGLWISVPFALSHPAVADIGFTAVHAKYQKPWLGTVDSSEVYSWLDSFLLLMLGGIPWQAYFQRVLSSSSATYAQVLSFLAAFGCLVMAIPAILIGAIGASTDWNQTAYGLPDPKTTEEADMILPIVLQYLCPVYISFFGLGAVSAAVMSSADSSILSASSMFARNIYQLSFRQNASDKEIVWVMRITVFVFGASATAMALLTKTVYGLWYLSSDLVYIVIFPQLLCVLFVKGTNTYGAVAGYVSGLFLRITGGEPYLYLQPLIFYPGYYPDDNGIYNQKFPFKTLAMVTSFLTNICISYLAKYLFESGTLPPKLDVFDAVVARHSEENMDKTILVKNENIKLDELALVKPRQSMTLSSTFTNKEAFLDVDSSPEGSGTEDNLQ

[17] = non-specific cell cytotoxicity, dose response, cytotoxicity control for PAX8 inhibitor project, plate reader, dry powder samples (AID 743021); assay type: functional, cell-based
Paired box protein Pax-8 = Paired box protein Pax-8 (Homo sapiens, UniProt Q06710); assay: inhibitors of PAX8-driven TPO luciferase reporter, dose response, RMG-I cells, cherry-pick (AID 687027); assay type: functional, cell-based;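 note: luciferase reporter driven by Pax8 target thyroperoxidase promoter measured by SteadyGlo luminescence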
[18] = cytotoxicity in OVCAR8 ovarian cancer cells, dose response, PAX8 project, cell-based, plate reader, dry powder samples (AID 743197); assay type: functional; conditions: OVCAR-8
[19] = NIH:OVCAR-3 ovarian cancer cell cytotoxicity, dose response, PAX8 inhibitor project, plate reader, dry powder samples (AID 743044); assay type: functional, cell-based

Chain of Glucose-6-phosphate 1-dehydrogenase (P11413 whole entry): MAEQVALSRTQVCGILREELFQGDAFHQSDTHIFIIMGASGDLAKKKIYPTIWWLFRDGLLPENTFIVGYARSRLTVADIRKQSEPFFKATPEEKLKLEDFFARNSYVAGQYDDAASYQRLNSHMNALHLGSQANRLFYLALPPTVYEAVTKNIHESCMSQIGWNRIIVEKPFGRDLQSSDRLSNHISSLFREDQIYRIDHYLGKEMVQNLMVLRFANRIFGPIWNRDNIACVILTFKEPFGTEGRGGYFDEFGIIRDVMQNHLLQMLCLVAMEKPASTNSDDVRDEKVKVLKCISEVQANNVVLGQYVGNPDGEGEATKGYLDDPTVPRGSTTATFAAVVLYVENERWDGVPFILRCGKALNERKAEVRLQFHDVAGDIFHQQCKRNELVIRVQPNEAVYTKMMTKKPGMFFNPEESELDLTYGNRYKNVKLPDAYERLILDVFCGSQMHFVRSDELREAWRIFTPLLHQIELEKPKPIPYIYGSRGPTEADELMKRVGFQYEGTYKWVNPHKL
Chain of Paired box protein Pax-8 (Q06710 whole entry): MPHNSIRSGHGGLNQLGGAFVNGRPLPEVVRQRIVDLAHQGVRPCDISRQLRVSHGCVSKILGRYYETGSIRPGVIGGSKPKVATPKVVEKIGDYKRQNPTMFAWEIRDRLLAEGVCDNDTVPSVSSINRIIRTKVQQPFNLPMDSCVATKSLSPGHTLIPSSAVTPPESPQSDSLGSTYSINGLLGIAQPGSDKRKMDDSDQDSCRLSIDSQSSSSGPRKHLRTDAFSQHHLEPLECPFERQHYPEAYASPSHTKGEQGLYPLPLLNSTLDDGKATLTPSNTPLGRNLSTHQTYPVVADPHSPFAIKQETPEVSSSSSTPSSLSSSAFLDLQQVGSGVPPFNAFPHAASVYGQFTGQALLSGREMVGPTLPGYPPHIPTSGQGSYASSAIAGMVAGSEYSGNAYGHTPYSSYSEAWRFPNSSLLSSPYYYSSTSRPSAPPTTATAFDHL
Chain of Genome polyprotein (P29990 2492-3391 limits assumed): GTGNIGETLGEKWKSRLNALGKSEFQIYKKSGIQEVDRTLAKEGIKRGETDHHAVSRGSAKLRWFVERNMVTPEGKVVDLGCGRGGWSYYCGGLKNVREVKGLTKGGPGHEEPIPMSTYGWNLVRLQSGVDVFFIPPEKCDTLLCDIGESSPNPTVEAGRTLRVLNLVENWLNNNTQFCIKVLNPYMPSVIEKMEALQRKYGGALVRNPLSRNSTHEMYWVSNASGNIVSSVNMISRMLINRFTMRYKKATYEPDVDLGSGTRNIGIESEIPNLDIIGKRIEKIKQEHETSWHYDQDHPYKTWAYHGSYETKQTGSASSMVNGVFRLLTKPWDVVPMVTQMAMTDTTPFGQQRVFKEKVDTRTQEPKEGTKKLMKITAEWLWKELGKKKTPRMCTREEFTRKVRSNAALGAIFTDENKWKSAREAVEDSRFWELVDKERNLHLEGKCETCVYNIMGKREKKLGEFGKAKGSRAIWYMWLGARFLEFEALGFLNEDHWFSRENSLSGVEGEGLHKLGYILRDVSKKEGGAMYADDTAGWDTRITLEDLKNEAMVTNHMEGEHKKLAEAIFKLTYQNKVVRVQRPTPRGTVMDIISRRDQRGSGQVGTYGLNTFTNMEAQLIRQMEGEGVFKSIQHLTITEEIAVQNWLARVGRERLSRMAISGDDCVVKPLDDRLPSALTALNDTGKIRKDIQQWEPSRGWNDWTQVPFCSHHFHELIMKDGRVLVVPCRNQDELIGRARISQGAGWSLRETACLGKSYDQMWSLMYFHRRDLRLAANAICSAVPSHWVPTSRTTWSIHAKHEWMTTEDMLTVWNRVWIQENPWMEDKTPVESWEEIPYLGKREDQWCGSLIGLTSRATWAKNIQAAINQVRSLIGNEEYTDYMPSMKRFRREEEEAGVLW

## CSc1nnc(NC(=O)c2ccc3c(c2)OCO3)s1
[1]
  IC50: 22.5 µM (inactive)
[2]
  AC50: 1.72 µM (active)
[3]
  AC50: 1.86 µM (active)
[4]
  AC50: > 52 µM (inactive)

## CCc1ccc(OCC(=O)NNC(=S)NC(=O)C2CC2)c(Br)c1
[5]
  EC50: 1.61 µM (active)
[6]
  EC50: > 150 µM (inactive)
[7]
  AC50: 0.978 µM (active)

## Cc1ccc(S(=O)(=O)[N-]C2=C(n3cc[n+](CCC(C)C)c3)C(=O)c3ccccc3C2=O)cc1
[8]
  AC50: 4.11 µM (active)
[9]
  IC50: 12.2 µM (active)

## CNS(=O)(=O)c1ccc(-c2ccc(C=C3C(=O)NC(=O)NC3=O)o2)cc1
[1]
  IC50: 51.2 µM (inactive)

## O=C1NC(=O)/C(=C\c2ccc(OCc3cccc(C(=O)O)c3)c(Cl)c2)N1
[10]
  EC50: 9.49 µM (inconclusive)
[11]
  EC50: 10.6 µM (active)
HEK293
  AC50: 6.47 µM (active)

## CCCSc1nnc(CSc2nc3ccccc3s2)n1-c1ccccc1
[12]
  AC50: 2.8 µM (active)
[13]
  AC50: 22.7 µM (active)
[14]
  AC50: > 70 µM (inactive)
[15]
  AC50: 7.05 µM (active)

## COc1cc(/C=C2/SC(=S)N(CC(=O)O)C2=O)ccc1OC(=O)c1cccs1
Genome polyprotein
  IC50: 88.3 µM (active)

## O=C(O)c1ccccc1NS(=O)(=O)c1ccc(NN=Cc2ccccc2F)c([N+](=O)[O-])c1
Caspase-6
  AC50: 19 µM (active)

## Cc1ccccc1C(=O)N1CCN(c2ccc(NC(=O)c3cccs3)cc2)CC1
HEK293
  AC50: 0.788 µM (active)

## O=S(=O)(c1ccccc1F)N1CCN(CCc2ccccc2)CC1
[16]
  IC50: 5.45 µM (active)

## CCOC(=O)c1c(C)n(-c2ccc(C)cc2)c2c(C(C(C)=O)C(=O)O)c(Br)c(O)c(O)c12 (stereo not given)
[9]
  IC50: 12.3 µM (active)
[1]
  IC50: 26.5 µM (inactive)

## Cc1ccc(S(=O)(=O)Oc2ccccc2C=C2C(=O)N(C)C(=O)N(C)C2=O)cc1
Genome polyprotein
  IC50: 37.8 µM (active)

## O=C(Nc1ccc(Br)cc1)c1ccc(F)c(S(=O)(=O)NCc2cccs2)c1
[13]
  AC50: 6.05 µM (active)
[14]
  AC50: 4.35 µM (active)
[15]
  AC50: 3.05 µM (active)

## CC(C)c1ccc(N2C(=O)C(Cl)=C(N3CCOCC3)C2=O)cc1
Genome polyprotein
  IC50: 69.4 µM (active)

## CC(=O)C1(C)CCC2C3C=C(C)C4=CC(=O)CCC4(C)C3CCC21C (stereo not given)
[13]
  AC50: 29.1 µM (active)
[14]
  AC50: 45.2 µM (active)
[15]
  AC50: 9.83 µM (active)

## COc1ccc(C(=O)Nc2ccc(N3CCN(C(=O)c4ccccc4C)CC3)cc2)cc1
HEK293
  AC50: 4.67 µM (active)

## O=C(COC(=O)c1ccc([N+](=O)[O-])o1)Nc1ccc(Br)cc1F
Caspase-6
  AC50: 40.1 µM (active)

## C(=NNc1ccc2ccccc2n1)c1ccccn1
[17]
  AC50: 58.9 µM (active)
Paired box protein Pax-8
  AC50: 2.95 µM (active)

## O=C(NCc1cccnc1)c1ccc(COc2ccccc2Cl)o1
[16]
  IC50: 14.5 µM (active)

## COCC(=O)N1CCC(Oc2ccc(C(=O)N3C[C@H]4CC[C@H]3C4)cc2)CC1
HEK293
  AC50: > 350 µM (inactive)

## CC(C)CC#Cc1ccc2c(c1)O[C@H](CN(C)S(=O)(=O)c1ccc(F)cc1)[C@H](C)CN([C@H](C)CO)S2(=O)=O
[17]
  AC50: 61.2 µM (active)
[18]
  AC50: 57.1 µM (active)
Paired box protein Pax-8
  AC50: 14.5 µM (active)
[19]
  AC50: 31.9 µM (active)

## O=C(Nc1ccccc1)N1CCCCN2[C@H](CO)[C@H](c3ccc(C#Cc4ccccc4)cc3)[C@H]2C1
[17]
  AC50: 35.5 µM (active)
Paired box protein Pax-8
  AC50: 16.8 µM (active)
[19]
  AC50: 20 µM (active)

## Oc1ccc(/N=C/c2c(O)ccc3ccccc23)cc1
Caspase-6
  AC50: 10 µM (active)
